Experimental data: US10137112B2, “Methods for treating hyperuricemia in patients with gout using halofenate or halofenic acid and a second urate-lowering agent” (CymaBay Therapeutics, Inc., priority 2011, dated 2018)
Where “and” joins values, the source holds several entries; their conditions need not be identical. Equal entries are not always repeated.

What was measured:
[1] = tested on: serum uric acid; conditions: monotherapy at 40, 80, 120, 160 and 240 mg/day; cited from earlier work
[2] = tested on: serum uric acid (sUA)
Method: A randomized, double-blind, placebo-controlled study to evaluate the safety and efficacy of daily oral doses of between 400 to 600 mg of arhalofenate (i.e., (−)-halofenate) in combination with 300 mg oral doses of allopurinol was conducted in gout patients with inadequate hypouricemic (uric acid lowering) response to allopurinol alone.
Patients who met the final eligibility criteria were randomized to each of 3 study arms in the following manner (1:1:1):
Arhalofenate 400 mg (plus allopurinol 300 mg)
Arhalofenate 600 mg (plus allopurinol 300 mg)
Placebo (plus allopurinol 300 mg)
The serum uric acid (sUA) levels were assessed at Day 1, prior to giving blinded study medication, and at Visits Week 2, 3, and 4.
Patients in all treatment groups also took allopurinol 300 mg once daily orally starting at Week −3 during the run-in and continuing through Week 4.
The randomized treatment regimens were as follows (Day 1 through Week 4):
Treatment Group #1: Arhalofenate 400 mg (plus allopurinol)
Treatment Group #2: Arhalofenate 600 mg (plus allopurinol)
Treatment Group #3: Placebo (plus allopurinol)
The effects of each of the three treatment groups were assessed as the change in sUA from baseline to the end of the treatment period for the following endpoints:
Percent change in sUA from baseline at Week 4 of treatment
The proportion of patients achieving a sUA<6 mg/dL at week 4 of treatment
The proportion of patients achieving a sUA<5 mg/dL at week 4 of treatment
The proportion of patients achieving a sUA<4 mg/dL at week 4 of treatment

[3] = tested on: serum uric acid (sUA); experiment: Example 2 clinical trial: arhalofenate 400 mg increasing to 600 mg in combination with febuxostat 80 mg in gout patients with hyperuricemia, serum uric acid; format: in vivo, human; conditions: Day 8, after 1 week febuxostat 80 mg daily
Method: This study evaluated the efficacy, safety and tolerability of arhalofenate at 400 mg increasing to 600 mg daily orally in combination with febuxostat 80 mg daily orally in gout patients (per criteria of the American Rheumatism Association) with hyperuricemia.
In addition to colchicine 0.6 mg daily for flare prophylaxis, all patients received febuxostat and arhalofenate in the following order during the Treatment Phase: • Days 1 through 7: febuxostat 80 mg orally once daily (febuxostat only period) • Days 8 through 21: febuxostat 80 mg plus arhalofenate 400 mg orally once daily (febuxostat plus arhalofenate 400 mg period) • Days 22 through 35: febuxostat 80 mg plus arhalofenate 600 mg orally once daily (febuxostat plus arhalofenate 600 mg period)
The sUA levels were assessed before the start of each dosing period (Day 1, Day 8, Day 22) and at the end of the Treatment Phase (Day 36). Serum urate levels were also measured on the last day of each dosing period (Day 7, Day 21, and Day 35) at 4 different time points; pre-dose (fasting), 2 hours post-dose, 6 hours post-dose, and 10 hours post-dose.
Dose/Route/Regimen • Colchicine: 0.6 mg/oral/daily from Day −16 through Day 49 • Febuxostat: 80 mg/oral/daily from Day 1 through Day 35 • Arhalofenate: 400 mg/oral daily from Day 8 through Day 21; 600 mg/oral/daily from Day 22 through Day 35
Duration of Treatment • Phase 1: Screening Phase: 1 to 4 weeks • Phase 2: Run-in/Stabilization Phase: ≥2 weeks • Phase 3: Treatment Phase: 5 weeks • Phase 4: Follow-up Phase: 2 weeks

[4] = placebo + allopurinol 300 mg once daily oral, Week 4 (LOCF), N = 31
[5] = placebo + allopurinol 300 mg once daily oral, Week 4, N = 31
[6] = placebo + allopurinol 300 mg, Week 4

O=c1[nH]cnc2c(CN3C[C@H](CO)[C@@H](O)C3)c[nH]c12 [Ulodesine, 7-(((3R,4R)-3-hydroxy-4-(hydroxymethyl)pyrrolidin-1-yl)methyl)-3H-pyrrolo[3,2-d]pyrimidin-4(5H)-one]
effect on serum uric acid in gout patients [1]: rapidly and significantly reduced serum uric acid

O=c1[nH]cnc2[nH]ncc12 [Placebo + Allopurinol, 1,5-dihydro-4H-pyrazolo [3,4-d]pyrimidin-4-one]
% Change from Baseline in Uric Acid, Mean [2, 4]: −9.5% | % Change from Baseline in Uric Acid, Median [2, 4]: −8.7% | Uric Acid at End of Treatment (LOCF), Mean [2, 5]: 6.3 mg/dL | Uric Acid at End of Treatment (LOCF), Median [2, 5]: 6.2 mg/dL | patients with sUA<4.0 mg/dL by End of Treatment [2, 6]: 1 patients | patients with sUA<5.0 mg/dL by End of Treatment [2, 6]: 4 patients | patients with sUA<6.0 mg/dL by End of Treatment [2, 6]: 11 patients

Cc1nc(-c2ccc(OCC(C)C)c(C#N)c2)sc1C(=O)O [febuxostat, 2-(3-cyano-4-isobutoxyphenyl)-4-methyl-1,3-thiazole-5-carboxylic acid]
mean absolute reduction in sUA from Day 1 [3]: -4.3 mg/dL | mean percent reduction in sUA from Day 1 [3]: −47.8% | Patients reached target: No, sUA < 3.0 mg/dL ([3]; 11 patients): 11 patients | Patients reached target: No, sUA < 4.0 mg/dL ([3]; 11 patients): 10 patients | Patients reached target: No, sUA < 5.0 mg/dL ([3]; 11 patients): 5 patients | Patients reached target: No, sUA < 6.0 mg/dL ([3]; 11 patients): 0 patients | Patients reached target: Yes, sUA < 3.0 mg/dL ([3]; 11 patients): 0 patients | Patients reached target: Yes, sUA < 4.0 mg/dL ([3]; 11 patients): 1 patients | Patients reached target: Yes, sUA < 5.0 mg/dL ([3]; 11 patients): 6 patients | Patients reached target: Yes, sUA < 6.0 mg/dL ([3]; 11 patients): 11 patients | Proportion of patients reached target, sUA < 3.0 mg/dL ([3]; 11 patients): 0.00% | Proportion of patients reached target, sUA < 4.0 mg/dL ([3]; 11 patients): 9% and 9.09% | Proportion of patients reached target, sUA < 5.0 mg/dL ([3]; 11 patients): 55% and 54.55% | Proportion of patients reached target, sUA < 6.0 mg/dL ([3]; 11 patients): 100%
